# Laboratory results taken from ChEMBL document CHEMBL1154498, “Clinical stage EGFR inhibitors irreversibly alkylate Bmx kinase” (Bioorg Med Chem Lett, 2008).
# Key:
# [1] = target: T1, Serine/threonine-protein kinase STK11 (Homo sapiens, UniProt Q15831); test: Inhibition of Lkb1
# T1 sequence (Q15831 whole entry): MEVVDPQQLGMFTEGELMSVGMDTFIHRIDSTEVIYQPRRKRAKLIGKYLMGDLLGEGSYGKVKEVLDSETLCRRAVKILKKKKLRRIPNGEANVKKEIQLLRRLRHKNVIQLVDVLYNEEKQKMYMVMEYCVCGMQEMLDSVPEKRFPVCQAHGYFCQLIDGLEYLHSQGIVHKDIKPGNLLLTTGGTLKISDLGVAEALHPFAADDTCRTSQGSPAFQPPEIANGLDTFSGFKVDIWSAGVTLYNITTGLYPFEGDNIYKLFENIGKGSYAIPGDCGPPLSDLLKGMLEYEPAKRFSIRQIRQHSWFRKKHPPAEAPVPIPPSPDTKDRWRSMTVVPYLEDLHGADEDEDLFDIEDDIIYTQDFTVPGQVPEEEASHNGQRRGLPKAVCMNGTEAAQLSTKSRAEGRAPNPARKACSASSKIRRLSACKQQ
# [2] = target: Tyrosine-protein kinase Blk (Homo sapiens, UniProt P51451); test: Inhibition of Blk
# Chain of Tyrosine-protein kinase Blk (P51451 whole entry): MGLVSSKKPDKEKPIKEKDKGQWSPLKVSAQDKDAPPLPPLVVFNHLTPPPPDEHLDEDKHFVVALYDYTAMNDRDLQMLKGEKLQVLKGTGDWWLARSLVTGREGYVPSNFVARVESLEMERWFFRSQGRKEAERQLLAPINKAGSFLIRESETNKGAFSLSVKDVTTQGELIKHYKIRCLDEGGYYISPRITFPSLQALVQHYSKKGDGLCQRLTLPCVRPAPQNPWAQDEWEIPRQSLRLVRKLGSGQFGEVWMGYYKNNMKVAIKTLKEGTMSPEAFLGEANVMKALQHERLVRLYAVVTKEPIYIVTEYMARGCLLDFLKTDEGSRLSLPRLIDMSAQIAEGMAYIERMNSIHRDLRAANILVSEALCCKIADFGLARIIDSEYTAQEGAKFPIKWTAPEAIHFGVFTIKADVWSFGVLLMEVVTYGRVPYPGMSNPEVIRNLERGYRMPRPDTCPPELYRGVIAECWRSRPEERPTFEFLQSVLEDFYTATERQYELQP
# [3] = target: Receptor tyrosine-protein kinase erbB-4 (Homo sapiens, UniProt Q15303); test: Inhibition of HER4
# Chain of Receptor tyrosine-protein kinase erbB-4 (Q15303 whole entry): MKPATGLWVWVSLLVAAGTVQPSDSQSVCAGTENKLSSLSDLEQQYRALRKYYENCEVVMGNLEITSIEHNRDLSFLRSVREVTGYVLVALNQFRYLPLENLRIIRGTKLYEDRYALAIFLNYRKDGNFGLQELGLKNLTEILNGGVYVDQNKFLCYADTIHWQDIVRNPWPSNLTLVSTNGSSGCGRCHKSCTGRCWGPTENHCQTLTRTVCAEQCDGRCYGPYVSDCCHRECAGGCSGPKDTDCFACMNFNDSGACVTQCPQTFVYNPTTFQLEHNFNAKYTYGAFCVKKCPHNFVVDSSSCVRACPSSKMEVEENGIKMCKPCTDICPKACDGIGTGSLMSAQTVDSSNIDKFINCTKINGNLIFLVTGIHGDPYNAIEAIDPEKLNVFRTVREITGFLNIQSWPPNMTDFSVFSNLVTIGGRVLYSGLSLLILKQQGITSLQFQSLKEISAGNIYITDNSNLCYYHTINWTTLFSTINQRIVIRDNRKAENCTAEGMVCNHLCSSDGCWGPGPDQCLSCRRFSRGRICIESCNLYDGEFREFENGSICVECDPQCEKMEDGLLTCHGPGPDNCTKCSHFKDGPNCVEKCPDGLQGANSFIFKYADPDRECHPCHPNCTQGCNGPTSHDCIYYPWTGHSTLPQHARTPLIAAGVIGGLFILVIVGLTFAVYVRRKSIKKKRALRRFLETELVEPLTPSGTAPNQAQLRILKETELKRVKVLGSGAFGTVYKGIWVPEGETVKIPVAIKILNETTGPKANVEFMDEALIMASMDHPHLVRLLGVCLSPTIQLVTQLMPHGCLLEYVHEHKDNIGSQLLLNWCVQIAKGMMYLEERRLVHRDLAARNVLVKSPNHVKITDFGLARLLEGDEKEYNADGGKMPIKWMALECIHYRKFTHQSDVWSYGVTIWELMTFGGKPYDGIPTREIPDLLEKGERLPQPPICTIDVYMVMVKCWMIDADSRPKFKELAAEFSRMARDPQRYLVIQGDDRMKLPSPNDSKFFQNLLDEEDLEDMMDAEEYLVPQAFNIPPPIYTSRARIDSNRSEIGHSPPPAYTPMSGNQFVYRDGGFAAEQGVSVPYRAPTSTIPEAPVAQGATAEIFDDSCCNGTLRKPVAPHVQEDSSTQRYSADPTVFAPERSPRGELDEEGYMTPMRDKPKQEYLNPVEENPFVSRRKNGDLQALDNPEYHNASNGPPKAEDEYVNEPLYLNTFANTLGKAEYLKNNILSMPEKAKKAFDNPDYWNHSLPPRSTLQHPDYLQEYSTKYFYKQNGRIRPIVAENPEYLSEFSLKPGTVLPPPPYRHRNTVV
# [4] = target: Tyrosine-protein kinase BTK (Homo sapiens, UniProt Q06187); test: Inhibition of Btk
# Chain of Tyrosine-protein kinase BTK (Q06187 whole entry): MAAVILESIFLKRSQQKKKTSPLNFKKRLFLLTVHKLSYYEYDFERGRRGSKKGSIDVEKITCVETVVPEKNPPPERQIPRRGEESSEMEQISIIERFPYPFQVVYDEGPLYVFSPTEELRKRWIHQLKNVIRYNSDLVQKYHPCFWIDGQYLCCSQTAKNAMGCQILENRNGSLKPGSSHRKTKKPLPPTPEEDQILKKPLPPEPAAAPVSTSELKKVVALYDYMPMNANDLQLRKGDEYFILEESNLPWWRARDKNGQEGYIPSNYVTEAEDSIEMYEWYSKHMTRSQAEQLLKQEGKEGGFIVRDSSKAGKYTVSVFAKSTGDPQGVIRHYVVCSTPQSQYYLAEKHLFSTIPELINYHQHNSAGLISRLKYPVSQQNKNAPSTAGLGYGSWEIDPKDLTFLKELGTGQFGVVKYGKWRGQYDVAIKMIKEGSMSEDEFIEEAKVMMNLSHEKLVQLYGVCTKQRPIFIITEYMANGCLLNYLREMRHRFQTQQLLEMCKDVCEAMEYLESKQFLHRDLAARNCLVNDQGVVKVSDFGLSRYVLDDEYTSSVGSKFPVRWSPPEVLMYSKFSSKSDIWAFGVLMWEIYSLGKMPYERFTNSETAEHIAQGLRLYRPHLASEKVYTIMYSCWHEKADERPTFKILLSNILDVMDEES
# [5] = target: T2, Tyrosine-protein kinase JAK3 (Homo sapiens, UniProt P52333); test: Inhibition of JAK3
# T2 sequence (P52333 whole entry): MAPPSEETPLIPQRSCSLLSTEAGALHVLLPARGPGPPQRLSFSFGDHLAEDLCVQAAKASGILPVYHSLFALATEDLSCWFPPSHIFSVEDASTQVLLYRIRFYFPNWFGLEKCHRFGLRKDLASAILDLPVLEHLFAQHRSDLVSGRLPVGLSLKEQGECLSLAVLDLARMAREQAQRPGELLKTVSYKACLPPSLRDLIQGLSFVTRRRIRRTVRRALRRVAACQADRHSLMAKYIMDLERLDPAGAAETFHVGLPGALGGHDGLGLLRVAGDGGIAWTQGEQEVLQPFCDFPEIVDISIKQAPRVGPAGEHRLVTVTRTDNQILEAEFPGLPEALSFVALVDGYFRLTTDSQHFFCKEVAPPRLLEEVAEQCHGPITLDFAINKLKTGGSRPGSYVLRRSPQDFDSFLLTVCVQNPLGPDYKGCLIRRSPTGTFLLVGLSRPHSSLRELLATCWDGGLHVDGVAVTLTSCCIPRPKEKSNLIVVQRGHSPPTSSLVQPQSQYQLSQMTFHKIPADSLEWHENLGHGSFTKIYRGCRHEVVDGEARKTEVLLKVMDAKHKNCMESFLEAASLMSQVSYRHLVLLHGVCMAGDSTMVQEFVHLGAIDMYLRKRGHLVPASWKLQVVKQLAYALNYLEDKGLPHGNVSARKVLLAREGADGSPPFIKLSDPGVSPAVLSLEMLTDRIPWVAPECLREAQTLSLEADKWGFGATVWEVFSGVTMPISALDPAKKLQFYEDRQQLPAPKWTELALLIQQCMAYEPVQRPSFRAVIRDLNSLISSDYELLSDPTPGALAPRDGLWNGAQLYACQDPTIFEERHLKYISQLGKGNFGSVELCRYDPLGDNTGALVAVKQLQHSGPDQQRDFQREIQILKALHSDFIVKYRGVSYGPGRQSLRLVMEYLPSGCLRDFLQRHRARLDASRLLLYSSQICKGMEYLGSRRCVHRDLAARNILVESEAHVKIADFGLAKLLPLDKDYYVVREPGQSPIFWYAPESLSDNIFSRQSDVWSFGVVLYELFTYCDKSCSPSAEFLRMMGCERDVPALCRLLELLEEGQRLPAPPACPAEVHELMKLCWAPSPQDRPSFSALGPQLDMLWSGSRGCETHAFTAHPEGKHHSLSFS
# [6] = target: T3, Tyrosine-protein kinase ITK/TSK (Homo sapiens, UniProt Q08881); test: Inhibition of Itk
# T3 sequence (Q08881 whole entry): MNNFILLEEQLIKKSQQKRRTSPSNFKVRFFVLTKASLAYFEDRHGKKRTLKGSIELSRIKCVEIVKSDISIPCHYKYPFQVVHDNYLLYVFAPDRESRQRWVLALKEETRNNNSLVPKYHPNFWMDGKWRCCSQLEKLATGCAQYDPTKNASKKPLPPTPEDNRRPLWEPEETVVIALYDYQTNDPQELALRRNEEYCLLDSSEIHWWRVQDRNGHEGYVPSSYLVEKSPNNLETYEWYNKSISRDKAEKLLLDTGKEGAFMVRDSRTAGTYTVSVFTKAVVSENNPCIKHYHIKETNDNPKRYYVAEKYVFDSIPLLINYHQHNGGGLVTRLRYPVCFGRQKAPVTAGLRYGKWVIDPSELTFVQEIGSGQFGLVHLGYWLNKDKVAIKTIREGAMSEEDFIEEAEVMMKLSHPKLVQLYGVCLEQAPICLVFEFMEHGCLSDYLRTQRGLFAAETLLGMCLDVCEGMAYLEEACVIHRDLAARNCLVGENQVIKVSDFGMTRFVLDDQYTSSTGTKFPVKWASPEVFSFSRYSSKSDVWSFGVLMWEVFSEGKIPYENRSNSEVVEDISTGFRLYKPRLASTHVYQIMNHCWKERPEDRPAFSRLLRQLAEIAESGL
# [7] = target: Receptor tyrosine-protein kinase erbB-2 (Homo sapiens, UniProt P04626); test: Inhibition of HER2
# Chain of Receptor tyrosine-protein kinase erbB-2 (P04626 whole entry): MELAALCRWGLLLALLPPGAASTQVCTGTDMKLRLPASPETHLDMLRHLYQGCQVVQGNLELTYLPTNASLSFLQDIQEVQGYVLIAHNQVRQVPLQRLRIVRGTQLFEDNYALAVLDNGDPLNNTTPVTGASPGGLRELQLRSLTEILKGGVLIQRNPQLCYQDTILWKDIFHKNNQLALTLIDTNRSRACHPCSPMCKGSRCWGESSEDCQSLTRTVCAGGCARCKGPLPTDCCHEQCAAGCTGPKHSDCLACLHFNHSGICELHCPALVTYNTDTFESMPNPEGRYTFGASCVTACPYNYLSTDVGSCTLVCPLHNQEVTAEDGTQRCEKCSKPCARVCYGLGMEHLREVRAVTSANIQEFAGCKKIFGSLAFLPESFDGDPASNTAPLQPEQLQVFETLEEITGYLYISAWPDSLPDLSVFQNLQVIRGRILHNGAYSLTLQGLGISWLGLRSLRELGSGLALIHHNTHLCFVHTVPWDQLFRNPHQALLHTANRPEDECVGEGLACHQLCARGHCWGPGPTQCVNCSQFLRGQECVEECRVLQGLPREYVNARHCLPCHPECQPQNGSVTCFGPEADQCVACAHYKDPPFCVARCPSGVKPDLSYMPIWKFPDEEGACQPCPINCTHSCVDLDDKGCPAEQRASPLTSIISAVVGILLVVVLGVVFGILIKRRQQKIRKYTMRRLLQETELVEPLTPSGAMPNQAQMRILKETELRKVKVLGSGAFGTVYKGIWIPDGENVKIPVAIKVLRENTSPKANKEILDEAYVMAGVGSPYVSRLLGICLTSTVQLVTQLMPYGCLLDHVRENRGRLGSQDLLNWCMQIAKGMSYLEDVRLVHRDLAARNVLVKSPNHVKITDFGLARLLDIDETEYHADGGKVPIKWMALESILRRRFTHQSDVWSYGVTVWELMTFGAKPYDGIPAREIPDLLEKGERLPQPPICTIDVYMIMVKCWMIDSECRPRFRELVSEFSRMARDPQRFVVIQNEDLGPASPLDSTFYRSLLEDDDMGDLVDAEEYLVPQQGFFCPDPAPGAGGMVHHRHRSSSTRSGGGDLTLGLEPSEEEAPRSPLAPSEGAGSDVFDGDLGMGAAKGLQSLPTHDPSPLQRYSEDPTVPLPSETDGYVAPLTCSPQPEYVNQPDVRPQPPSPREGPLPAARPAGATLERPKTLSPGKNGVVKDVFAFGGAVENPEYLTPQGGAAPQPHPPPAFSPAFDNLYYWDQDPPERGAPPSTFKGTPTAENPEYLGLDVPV
SMILES,IC50 [1],IC50 [2],IC50 [3],IC50 [4],IC50 [5],IC50 [6],IC50 [7]
C=CC(=O)Nc1ccc2ncnc(Nc3cccc(Br)c3)c2c1,> 10 µM,5.47 µM,0.012 µM,5.83 µM,3.14 µM,> 30 µM,0.024 µM
C=CC(=O)Nc1cc2c(Nc3ccc(F)c(Cl)c3)ncnc2cc1OCCCN1CCOCC1 [CANERTINIB],,,,0.185 µM,,,
